Like-named read-outs stand apart in the source and are kept apart here.
Experiments:
[1] = system: T. gondii tachyzoites (RH strain); assay: Anti-Toxoplasma activity (infection index in Vero cells, 72 h); format: cell-based, Toxoplasma gondii; conditions: mean ± SD
Experimental: Tachyzoites of the T. gondii RH strain were cultivated in Vero cells according to a published method. Complete RPMI 1640 medium (Invitrogen, USA) with 10% fetal bovine serum (FBS, Invitrogen, USA) was used to culture Vero cells in 96-well plates (5 × 10^3 cells/well in 200 μL of medium), which were incubated at 37 °C and under 5% CO2 for 24 h. This was followed by washing with phosphate-buffered saline (PBS) to remove the medium. Then, RPMI 1640 medium with 2% FBS containing T. gondii tachyzoites (RH strain) at a ratio of 5 (parasite): 1 (Vero cells) was added. After incubation at 37 °C and under 5% CO2 for 5 h, the cells were washed with PBS and overlaid with medium containing one of the tested compounds or atovaquone (ATO) at 50, 25, 12.5, 6.25, 3.13, 1.65, 0.75, or 0.37 μg mL^–1.
After incubation at 37 °C and under 5% CO2 for 72 h, the cells were stained with 1% toluidine before being examined under an inverted photomicroscope (MCD-400, Leica, Japan) to determine the T. gondii infection index (number of infected cells from 200 tested cells). The experiment was performed in triplicate.

[2] = system: Vero cells; assay: Cytotoxicity assay (MTT), Vero cells; format: cell-based, African Green Monkey; conditions: Chlorocebus sabaeus, 72 h, mean ± SD
Experimental: (§1) The MTT colorimetric assay was conducted to assess the cytotoxicity of the compounds according to a method described previously. Briefly, Vero cells or macrophages were cultured in 96-well plates (5 × 10^3 cells/well/200 μL) in RPMI 1640 medium with 10% FBS at 37 °C and under 5% CO2 for 24 h. Thereafter, PBS was used to wash the cells. Then, the compounds in RPMI complete medium with 10% FBS (at varying concentrations of 50, 25, 12.5, 6.25, 3.13, 1.65, 0.75, or 0.37 μg mL^–1) were added to 96-well plates and incubated for 72 h. Cells treated with a medium containing only DMSO (1%) were used as the negative control. After washing, MTT (1 mg mL^–1 in RPMI 1640 medium) was added to each well. The cells were incubated for 4 h, and the supernatant was removed. Next, 150 μL of DMSO was added, and a microplate absorbance spectrophotometer was applied for colorimetric analysis (λ = 540 nm). Cytotoxic effects were expressed by IC50 values (concentration that caused a 50% reduction of viable cells). The experiment was performed in triplicate.

[3] = system: L. major amastigotes; assay: Activity against L. major amastigotes in peritoneal macrophages (percentage of infected macrophages, Giemsa, 72 h); format: cell-based, Leishmania major; conditions: Leishmania major, intracellular amastigotes, mean ± SD, read-out: EC50 L. major ama
Experimental: (§2) L. major promastigotes were isolated and maintained according to a described method. BALB/c mice were injected at the hind footpads with 1 × 10^6 L. major metacyclic promastigotes. L. major amastigotes were collected from the infected mice. After 8 weeks had elapsed since inoculation, Schneider’s medium (Invitrogen, USA) containing antibiotics and 10% FBS was used to transform isolated amastigotes into promastigotes by incubation at 26 °C. Amastigote-derived promastigotes with less than five in vitro passages were only used for infection.
(§3) Female BALB/c mouse peritoneal macrophages (6–8 weeks old) were used to culture L. major amastigotes to assess the activity of the compounds against amastigotes. Briefly, 1 mL of 3% Brewer’s thioglycollate medium/mouse was injected into the peritoneal cavity. After 4 days, the abdominal skin was removed to expose the peritoneal wall. Then, 3 mL of RPMI 1640 medium was injected before cells were collected by aspiration, whereupon 96-well plates containing RPMI 1640 medium with 10% FBS were used to culture 5 × 10^4 cells/well, which were incubated at 37 °C under 5% CO2 for 4 h. After washing with PBS, RPMI 1640 medium containing 5 × 10^5 promastigotes were added to each well. Next, the cells were incubated at 37 °C under humidified 5% CO2 for 24 h to enhance infection and differentiation of amastigotes. Washing with PBS several times removed free promastigotes. Fresh complete RPMI 1640 medium containing one of the tested compounds or AmB at the desired final concentration (50, 25, 12.5, 6.25, 3.13, 1.65, 0.75, or 0.37 μg mL^–1) was added and incubated at 37 °C under a humidified 5% CO2 atmosphere for 72 h. DMSO (1%), only in complete RPMI media, was used as the negative control. The percentage of infected macrophages was assessed microscopically after the medium was removed, followed by washing with PBS, fixation with methanol, and staining with Giemsa. The reading was performed in triplicate. Handling of the laboratory animals followed the instructions and rules of the Committee of Research Ethics, Deanship of Scientific Research, Qassim University, permission number 20–03–20.

[4] = system: L. major promastigotes; assay: Activity against L. major promastigotes (MTT, 72 h); format: cell-based, Leishmania major; conditions: mean ± SD, read-out: EC50 L. major prom
Experimental: as §2
To assess the activity of the compounds against L. major promastigotes, 10^6 promastigotes/mL were cultured in 96-well plates in Schneider’s medium with 10% FBS. Then, the compounds or amphotericin B (AmB) were added to obtain the final concentrations (50, 25, 12.5, 6.25, 3.13, 1.65, 0.75, or 0.37 μg mL^–1). Negative control wells contained cultures with DMSO (1%) only. Plates were incubated at 26 °C for 72 h to evaluate the antiproliferative effect. The colorimetric MTT method was used to count viable promastigotes under a microplate absorbance spectrophotometer (xMark, Bio-Rad, USA) at 570 nm. The experiment was performed in triplicate.

[5] = system: macrophages; assay: Cytotoxicity assay (MTT), macrophages; format: cell-based, BALB/c mouse; conditions: Mus musculus, Macrophage; 72 h, mean ± SD; read-out: IC50 macro
Experimental: as §3, §1

[6] = system: L. amazonensis amastigotes; set-up: method as in Oliveira and co-workers; conditions: ref Oliveira and co-workers; read-out: IC50 against L. amazonensis amastigotes; cited from earlier work
[7] = system: L. amazonensis promastigotes; set-up: method as in Oliveira and co-workers; conditions: ref Oliveira and co-workers, cited from earlier work

| Compound | EC50 [3] [µM] | EC50 ([4]; Leishmania major) [µM] | EC50 [4] [µM] | EC50 ([1]; Toxoplasma gondii, Vero) [µM] | IC50 [2] [µM] | IC50 [5] [µM] | IC50 [6] [µM] | activity against L. amazonensis promastigotes [7] | IC50 ([7]; read-out: IC50 against L. amazonensis promastigotes) [µM] | EC50 [1] [µM] |
| --- | --- | --- | --- | --- | --- | --- | --- | --- | --- | --- |
| CCOC(=O)C1=C(C)NC(C)=C(C(=O)OCC)C1c1ccc(Br)cc1 [Compound 20] | > 50.9 | > 50.9 |  | > 50.9 | 35 ± 5.9 | 44.8 ± 8.2 |  |  |  |  |
| CCOC(=O)C1=C(C)NC(C)=C(C(=O)OCC)C1c1cccc(F)c1 [Compound 21] | > 59.9 | > 59.9 |  | > 59.9 | > 59.9 | > 59.9 |  |  |  |  |
| CCOC(=O)C1=C(C)NC(C)=C(C(=O)OCC)C1c1cccc([N+](=O)[O-])c1 [Compound 22] | > 55.6 | < 50 | 46.5 ± 7.7 |  | 29.9 ± 4.4 | 46.5 ± 7.4 |  | inactive |  |  |
| CCOC(=O)C1=C(C)NC(C)=C(C(=O)OCC)C1c1ccc(O)c(OC)c1 [Compound 23] | > 55.4 | > 55.4 |  | < 50 | 22.1 ± 3.2 | 40.5 ± 6.8 |  |  |  | 29.8 ± 4.8 |
| CCOC(=O)C1=C(C)NC(C)=C(C(=O)OCC)C1c1cc(OC)c(OC)c(OC)c1 [Compound 24] | > 49.6 | < 50 | 42.7 ± 8 | > 49.6 | 14.8 ± 2.6 | 34.1 ± 5.5 |  | inactive |  |  |

Further lines, with some results ahead:

| EC50 [3] [µM] | EC50 ([4]; Leishmania major) [µM] | EC50 [4] [µM] | Compound | EC50 ([1]; Toxoplasma gondii, Vero) [µM] | IC50 [2] [µM] | IC50 [5] [µM] | IC50 [6] [µM] | activity against L. amazonensis promastigotes [7] | IC50 ([7]; read-out: IC50 against L. amazonensis promastigotes) [µM] | EC50 [1] [µM] |
| --- | --- | --- | --- | --- | --- | --- | --- | --- | --- | --- |
| > 58.2 | > 58.2 |  | CCOC(=O)C1=C(C)NC2=C(C(=O)CC(C)(C)C2)C1c1cccc(F)c1 (centres unmarked) [Compound 7] | > 58.2 | > 58.2 | > 58.2 | 12.5 |  |  |  |
| > 60.6 | < 50 | 47.5 ± 6.2 | CCOC(=O)C1=C(C)NC2=C(C(=O)CC(C)(C)C2)C1c1ccc2c(c1)OCO2 (centres unmarked) [Compound 12] | 30.3 ± 5.2 | 14.9 ± 2.6 | 42.5 ± 7.2 |  | inactive |  |  |
| > 48.4 | > 48.4 |  | CCOC(=O)C1=C(C)NC2=C(C(=O)CC(C)(C)C2)C1c1cc(OC)c(OC)c(OC)c1 (centres unmarked) [Compound 13] | > 48.4 | > 48.4 | > 48.4 |  |  | 24.6 |  |
| 21 ± 3.9 |  |  | CCOC(=O)C1=C(C)NC2=C(C(=O)CC(C)(C)C2)C1c1c(OC)cc(OC)cc1OC (centres unmarked) [Compound 14] | > 48.4 | 22.8 ± 3.3 | 16.8 ± 3.1 |  | inactive |  |  |

— article PMC12290673, “Antileishmanial and Antitoxoplasmal Activities of 1,4-Dihydropyridines” (ACS Omega, 2025)
